Measured values: publication PMC11005681, “Growth‐Coupled Evolutionary Pressure Improving Epimerases for D‐Allulose Biosynthesis Using a Biosensor‐Assisted In Vivo Selection Platform” (Advanced Science, 2024)

Legend:
[1] = molecular target: T1, ADAE (Agrobacterium sp. SUL3 D-allulose 3-epimerase) (Agrobacterium sp. SUL3, UniProt Z9QCC6USU8); assay: X-ray crystal structure of complex; format: binding; conditions: active site with Mg2+; PDB id not printed in main text
T1 construct: homotetramer; each subunit an (alpha/beta)8 barrel with Mg2+ site
T1 sequence (Z9QCC6USU8 1-284): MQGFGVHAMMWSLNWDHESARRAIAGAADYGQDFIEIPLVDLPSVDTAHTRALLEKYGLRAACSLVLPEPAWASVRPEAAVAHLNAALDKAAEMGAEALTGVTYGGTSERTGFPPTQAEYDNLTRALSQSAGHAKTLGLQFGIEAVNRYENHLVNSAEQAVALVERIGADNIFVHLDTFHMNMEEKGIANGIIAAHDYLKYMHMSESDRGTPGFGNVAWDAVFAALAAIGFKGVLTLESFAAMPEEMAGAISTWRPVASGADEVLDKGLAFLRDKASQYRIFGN

[2] = molecular target: Agrobacterium sp. SUL3 D-allulose 3-epimerase (Agrobacterium sp. SUL3); assay: crystal structure; X-ray crystal structures of ADAE alone and in complex with D-fructose or D-allulose; oligomer seen in the structure

Row | stoichiometry N [2] | Compound | X-ray crystal structure of complex [1]
1 | – | O=C(CO)[C@H](O)[C@H](O)[C@H](O)CO [D-allulose] | X-ray crystal structures of ADAE alone and in complex with different ligands, including D‐fructose and D‐allulose
2 | – | OCC1(O)OC[C@@H](O)[C@@H](O)[C@@H]1O (stereo partly drawn) [D-fructose] | X-ray crystal structures of ADAE alone and in complex with different ligands, including D‐fructose and D‐allulose
3 | 4 | Agrobacterium sp. SUL3 D-allulose 3-epimerase (enzyme) | –
